# What was measured:
# [1] = tested on: Human immortalized keratinocytes (HaCaT); assay: Cytotoxicity assay (LDH activity in supernatant as a measure for cell death); type: cell-based; conditions: for cell death (LDH activity): normal culture conditions (without menadione)
# Method: FIG. 1: HaCat cells were incubated with 10 μM hesperetin (hp, red bars) or low 10 μM hesperetin-7-O-glucuronide (hp-7-O-gluc, yellow bars) or equal amounts of DMSO as a control (blue bars) and treated with or without menadione for additional 5 h. The supernatant was analyzed for lactate dehydrogenase (LDH) activity and results were expressed relative to cells which were lysed with Triton X-100® before analysis (100% death). Human immortalized keratinocytes (HaCaT) were incubated with 10 μM hesperetin, 10 μM hesperetin-7-O-glucuronide or equal amounts of DMSO as a negative control for 16 h and 1 h before challenge. Cells were then treated with 100 μM menadione, a xenobiotic which generates reactive oxygen species intracellularly. Non-menadione treated cells were used as a positive control. After 5 h the supernatant was analysed for lactate dehydrogenase (LDH) activity as a measure for cell death using the CytoTox 96 non-radioactive cytotoxicity assay (Promega, USA).
# [2] = tested on: rat skin; assay: Histopathological analysis of rat skin, hesperidin growth trial; type: in vivo, female wistar rats; conditions: rats fed hesperidin diet (0.1% and 0.5%) from weaning to 12 weeks of age, vs control diet
# Excerpt: FIG. 3: Histopathological analysis of rat skin supplemented with hesperidin. 6 μm paraffin sections were de-waxed, stained with hematoxylin/eosin and mounted. Representative images in two magnifications are shown for the control group (A and D) and the groups supplemented with hesperidin (0.1%: B and E, 0.5% C and F).
# (§1) Rat skin biopsies were obtained from the Heperidin growth trial (FIG. 2). Dorsal skin was excised, one part was fixed in 4% PFA and paraffin embedded, one part was cryo-preserved and another part was immediately frozen in liquid nitrogen.
# Rat skin was dissected and fixed for 4 days in 4% paraformaldehyde in PBS (pH 7.4) at 4° C. and embedded in paraffin using a Leica Microsystem embedding apparatus. The tissues were washed in PBS and saline (0.9% NaCl) and dehydrated by passing them through saline solutions with increasing ethanol concentrations: 30 min each in 30%, 50%, 70%, 90%, 99%, 100% and an additional hour in 100%. Tissue samples were incubated twice for 30 min in xylene, followed by 2-3 h and 3 h incubations in paraffin wax at 60° C. 6 μm thick paraffin sections were cut using a Leica Microtome. Sections were de-waxed 5 min in xylene and dehydrated by passing them through a series of solutions with decreasing ethanol concentrations: 1 min each in 100%, 96%, 90%, 80%, 70%, and 50% ethanol. Finally, they were transferred into destilled water and stained. […]
# [3] = tested on: interleukin 6 (IL-6); assay: Real-time PCR of rat skin total RNA, IL-6 expression; type: in vivo, female wistar rats; conditions: rats fed 0.5% hesperidin diet, vs control diet
# Method: (§2) FIG. 4: Real-time PCR analysis of total RNA isolated from rat skin fed either a control diet (ctrl) or a hesperidin-supplemented diet (0.1% Hp, 0.5% Hp) for the expression of CD1d1 and interleukin 6 (IL-6). Samples were analyzed in 3 pools containing 4 rats each and obtained Ct values are shown for CD1d1 in A and IL-6 in B. Dots represent averages of technical triplicates, bars the total average per group. Fold changes in relative expression of the supplementation compared to control diet and relative to a housekeeping gene are shown in C. The control diet was set to 1 fold and is represented by a thick line. Confident intervals were calculated using ANOVA.
# as §1
# (§3) Skin samples were homogenized with Lysing Matrix D, total RNAs were extracted using the ToTally RNA™ Kit following the manufacturer's instructions. RNA was eluted with 40 μl of nuclease-free water.
# (§4) The quantification was performed using the Ribogreen® RNA quantitation Kit on 96-well plates and a fluorescence microplate reader according to the manual. Measurements were done in duplicate. The samples were diluted either 1:680 or 1:3400 in a final volume of 100 μl 1×TE buffer. […]
# (§5) Data were analysed by ANOVA. […]
# [4] = tested on: CD1d1 antigen; assay: Real-time PCR of rat skin total RNA, CD1d1 expression; type: in vivo, female wistar rats; conditions: vs control diet
# Method: as §2, §1, §3, §4, §5
SMILES,"potency of protective effect compared to the aglycone ([1]; 10 μM each, FIG. 1)","protective effect against cell death (LDH activity) ([1]; 10 μM, challenged with 100 μM menadione for 5 h, vs DMSO control)","cell death (LDH activity) ([1]; 10 μM, vs DMSO control)",number of inflammatory cells in skin (histopathology) [2],IL-6 mRNA levels in skin [3],CD1d1 mRNA levels in skin ([4]; rats fed 0.1% hesperidin diet),CD1d1 mRNA levels in skin ([4]; rats fed 0.5% hesperidin diet)
COc1ccc([C@@H]2CC(=O)c3c(O)cc(O[C@@H]4O[C@H](C(=O)O)[C@@H](O)[C@H](O)[C@H]4O)cc3O2)cc1O [hesperetin-7-O-glucuronide],more potent compared to hp,even more pronounced,reducing cell death,,,,
COc1ccc([C@@H]2CC(=O)c3c(O)cc(O)cc3O2)cc1O [hesperetin],,,reducing cell death,,,,
COc1ccc([C@@H]2CC(=O)c3c(O)cc(O[C@@H]4O[C@H](CO[C@@H]5O[C@@H](C)[C@H](O)[C@@H](O)[C@H]5O)[C@@H](O)[C@H](O)[C@H]4O)cc3O2)cc1O [hesperidin],,,,reduced number of inflammatory cells,significantly reduced,significantly decreased,significantly decreased

# From patent US9717671B2, “Composition for improving skin, hair and coat health containing flavanones” (Nestec S.A., priority 2003, dated 2017)
